For this test, the system named is L1210 leukemia ip in BDF1 mice, survival T/C. Kind of test: NCI In Vivo Anticancer Drug Screen. Data for tumor model L1210 Leukemia (intraperitoneal) in B6D2F1 (BDF1) mice. To be noted: endpoint: mean survival time, higher = longer survival. The essentials:
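Value reflects the ratio of survival in compound-treated mice to survival in vehicle-treated controls, with both groups carrying the same transplanted tumor.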

Setting [1] is: dose: 25.0 mg/kg/injection, schedule: Q01DX009 (ip), vehicle: saline with Tween-80.
The mark [2] stands for this setting: dose: 100.0 mg/kg/injection, schedule: Q01DX001 (ip), vehicle: saline with Tween-80.
[3] abbreviates: dose: 100.0 mg/kg/injection, schedule: Q04DX003 (ip), vehicle: saline with Tween-80.
The mark [4] stands for this setting: dose: 200.0 mg/kg/injection, schedule: Q01DX001 (ip), vehicle: saline with Tween-80.

“And” between values parts separate entries of the source, which are not always exact repeats. Identical values can stand only once. Inconclusive results and toxic doses are left out.

Take `Cn1c(CCCC(=O)O)nc2cc(N(CCCl)CCCl)ccc21`: the T/C is 101 % of control (dose: 2.5 mg/kg/injection, schedule: Q01DX001 (ip), vehicle: other); 111 % of control (dose: 2.5 mg/kg/injection, schedule: Q01DX009 (ip), vehicle: other); 106 % of control (dose: 4.37 mg/kg/injection, schedule: Q01DX001 (ip), vehicle: saline); 115 % of control (dose: 4.37 mg/kg/injection, schedule: Q04DX003 (ip), vehicle: saline); 109 % of control (dose: 5.0 mg/kg/injection, schedule: Q01DX001 (ip), vehicle: other); 117 % of control (dose: 5.0 mg/kg/injection, schedule: Q01DX009 (ip), vehicle: Klucel (hydroxypropylcellulose) (HPC)). In addition, the T/C (dose: 5.0 mg/kg/injection, schedule: Q01DX009 (ip), vehicle: other) was 117 % of control; the T/C (dose: 5.0 mg/kg/injection, schedule: Q04DX003 (ip), vehicle: other) is 120 % of control; the T/C (dose: 6.6 mg/kg/injection, schedule: Q01DX009 (ip), vehicle: Klucel (hydroxypropylcellulose) (HPC)) is 110 % of control; the T/C (dose: 8.75 mg/kg/injection, schedule: Q01DX001 (ip), vehicle: saline) is 117 % of control; the T/C (dose: 8.75 mg/kg/injection, schedule: Q04DX003 (ip), vehicle: saline) was 123 % of control; the T/C (dose: 10.0 mg/kg/injection, schedule: Q01DX001 (ip), vehicle: other) is 111 % of control and 124 % of control. The T/C (dose: 10.0 mg/kg/injection, schedule: Q01DX009 (ip), vehicle: acetone) is 114 % of control; the T/C (dose: 10.0 mg/kg/injection, schedule: Q01DX009 (ip), vehicle: other) was 120 % of control; the T/C (dose: 10.0 mg/kg/injection, schedule: Q04DX003 (ip), vehicle: Klucel (hydroxypropylcellulose) (HPC)) was 117 % of control; the T/C (dose: 10.0 mg/kg/injection, schedule: Q04DX003 (ip), vehicle: other) was 118 % of control; the T/C (dose: 12.5 mg/kg/injection, schedule: Q01DX001 (ip), vehicle: saline) was 116 % of control; the T/C (dose: 17.5 mg/kg/injection, schedule: Q01DX001 (ip), vehicle: saline) is 116 % of control. Also, the T/C is 116 % of control (dose: 17.5 mg/kg/injection, schedule: Q04DX003 (ip), vehicle: saline); 117 % of control (dose: 20.0 mg/kg/injection, schedule: Q01DX001 (ip), vehicle: carboxymethylcellulose (CMC)); 122 % of control (dose: 20.0 mg/kg/injection, schedule: Q01DX001 (ip), vehicle: other); 117 % of control (dose: 20.0 mg/kg/injection, schedule: Q01DX009 (ip), vehicle: Klucel (hydroxypropylcellulose) (HPC)); 110 % of control (dose: 20.0 mg/kg/injection, schedule: Q01DX009 (ip), vehicle: acetone); 119 % of control (dose: 20.0 mg/kg/injection, schedule: Q04DX003 (ip), vehicle: Klucel (hydroxypropylcellulose) (HPC)). In addition, the T/C (dose: 20.0 mg/kg/injection, schedule: Q04DX003 (ip), vehicle: other) was 118 % of control; the T/C (dose: 25.0 mg/kg/injection, schedule: Q01DX001 (ip), vehicle: other) was 119 % of control; the T/C (dose: 25.0 mg/kg/injection, schedule: Q01DX001 (ip), vehicle: saline) was 115 % of control; the T/C (dose: 25.0 mg/kg/injection, schedule: Q01DX009 (ip), vehicle: Klucel (hydroxypropylcellulose) (HPC)) is 89 % of control; the T/C (dose: 26.4 mg/kg/injection, schedule: Q04DX003 (ip), vehicle: saline) is 124 % of control; the T/C (dose: 35.0 mg/kg/injection, schedule: Q01DX001 (ip), vehicle: Klucel (hydroxypropylcellulose) (HPC)) is 115 % of control. The T/C runs as follows: (dose: 40.0 mg/kg/injection, schedule: Q01DX001 (ip), vehicle: carboxymethylcellulose (CMC)) 117 % of control; (dose: 40.0 mg/kg/injection, schedule: Q01DX009 (ip), vehicle: Klucel (hydroxypropylcellulose) (HPC)) 87 % of control; (dose: 40.0 mg/kg/injection, schedule: Q01DX009 (ip), vehicle: other) 88 % of control; (dose: 40.0 mg/kg/injection, schedule: Q04DX003 (ip), vehicle: other) 115 % of control and 123 % of control; (dose: 40.0 mg/kg/injection, schedule: Q04DX003 (ip), vehicle: saline) 119 % of control; (dose: 50.0 mg/kg/injection, schedule: Q01DX001 (ip), vehicle: Klucel (hydroxypropylcellulose) (HPC)) 123 % of control. Besides, the T/C (dose: 50.0 mg/kg/injection, schedule: Q01DX001 (ip), vehicle: other) is 156 % of control; the T/C (dose: 75.0 mg/kg/injection, schedule: Q01DX001 (ip), vehicle: Klucel (hydroxypropylcellulose) (HPC)) is 112 % of control; the T/C (dose: 75.0 mg/kg/injection, schedule: Q01DX001 (ip), vehicle: other) is 110 % of control; the T/C (dose: 80.0 mg/kg/injection, schedule: Q01DX001 (ip), vehicle: carboxymethylcellulose (CMC)) was 112 % of control; the T/C (dose: 80.0 mg/kg/injection, schedule: Q01DX001 (ip), vehicle: other) is 114 % of control; the T/C (dose: 80.0 mg/kg/injection, schedule: Q04DX003 (ip), vehicle: other) is 87 % of control and 91 % of control.
In the case of `OC(Cc1ccc2ccccc2n1)C(Cl)(Cl)Cl` (centres undefined), the T/C was 103 % of control under setting [1]; 91 % of control (dose: 50.0 mg/kg/injection, schedule: Q01DX009 (ip), vehicle: saline with Tween-80); 101 % of control (dose: 100.0 mg/kg/injection, schedule: Q01DX009 (ip), vehicle: Klucel (hydroxypropylcellulose) (HPC)); 101 % of control (dose: 100.0 mg/kg/injection, schedule: Q01DX009 (ip), vehicle: saline with Tween-80); 93 % of control (dose: 200.0 mg/kg/injection, schedule: Q01DX009 (ip), vehicle: Klucel (hydroxypropylcellulose) (HPC)); 89 % of control (dose: 200.0 mg/kg/injection, schedule: Q01DX009 (ip), vehicle: saline with Tween-80). The T/C reads like this: (dose: 400.0 mg/kg/injection, schedule: Q01DX009 (ip), vehicle: Klucel (hydroxypropylcellulose) (HPC)) 101 % of control; (dose: 400.0 mg/kg/injection, schedule: Q01DX009 (ip), vehicle: saline with Tween-80) 114 % of control.
Take `[Br][Bi]([Br])([c]1ccccc1)([c]1ccccc1)[c]1ccccc1`: the T/C is 97 % of control (dose: 12.5 mg/kg/injection, schedule: Q04DX002 (ip), vehicle: Klucel (hydroxypropylcellulose) (HPC)); 101 % of control (dose: 25.0 mg/kg/injection, schedule: Q04DX002 (ip), vehicle: Klucel (hydroxypropylcellulose) (HPC)); 104 % of control (dose: 50.0 mg/kg/injection, schedule: Q04DX002 (ip), vehicle: Klucel (hydroxypropylcellulose) (HPC)); 97 % of control (dose: 100.0 mg/kg/injection, schedule: Q04DX002 (ip), vehicle: Klucel (hydroxypropylcellulose) (HPC)).
As to `CC(C)=CCC/C(C)=C/Cn1cc([N+](=O)[O-])ccc1=O`, the T/C was 106 % of control under setting [2]; 111 % of control under setting [3]; 101 % of control under setting [4]; 111 % of control (dose: 200.0 mg/kg/injection, schedule: Q04DX003 (ip), vehicle: saline with Tween-80); 98 % of control (dose: 400.0 mg/kg/injection, schedule: Q01DX001 (ip), vehicle: saline with Tween-80); 102 % of control (dose: 400.0 mg/kg/injection, schedule: Q04DX003 (ip), vehicle: saline with Tween-80).
As for `CCOC(=O)CCCSCCCC(=O)OCC`, the T/C (dose: 100.0 mg/kg/injection, schedule: Q01DX009 (ip), vehicle: saline) is 111 % of control; the T/C (dose: 100.0 mg/kg/injection, schedule: Q04DX003 (ip), vehicle: saline) is 111 % of control; the T/C (dose: 200.0 mg/kg/injection, schedule: Q01DX009 (ip), vehicle: saline) was 101 % of control; the T/C (dose: 200.0 mg/kg/injection, schedule: Q04DX003 (ip), vehicle: saline) is 98 % of control; the T/C (dose: 400.0 mg/kg/injection, schedule: Q01DX009 (ip), vehicle: saline) is 110 % of control; the T/C (dose: 400.0 mg/kg/injection, schedule: Q04DX003 (ip), vehicle: saline) is 88 % of control.
Take `O=C(NC(=S)Nc1ccc(F)cc1)c1cccc([N+](=O)[O-])c1`: the T/C (dose: 12.5 mg/kg/injection, schedule: Q01DX009 (ip), vehicle: saline with Tween-80) was 97 % of control and 98 % of control; the T/C under setting [1] is 94 % of control and 97 % of control; the T/C (dose: 50.0 mg/kg/injection, schedule: Q04DX003 (ip), vehicle: saline with Tween-80) is 100 % of control; the T/C under setting [2] was 97 % of control; the T/C (dose: 100.0 mg/kg/injection, schedule: Q04DX002 (ip), vehicle: saline with Tween-80) was 101 % of control; the T/C under setting [3] is 97 % of control. Further, the T/C is 95 % of control under setting [4]; 93 % of control and 97 % of control (dose: 200.0 mg/kg/injection, schedule: Q04DX002 (ip), vehicle: saline with Tween-80).
